In patent publication US6689372B1, “Microbicidal active substances” (Ciba Specialty Chemicals Corporation, priority 1998, dated 2004) one finds MIC and Inhibiting areola diameter data, which are given here for six compounds.

Common to all, as to assay type: cell-based
Assay [1] has as its system Corynebacterium xerosis ATCC 373. Kind of assay: Agar incorporation test (MIC test). The following applies: C. xerosis. On the procedure:
(§1) Determination of the Minimum Inhibiting Concentration (MIC) in the Agar Incorporation Test (MIC Test)
(§2) When the nutrient substrate has solidified, 10 μl portions of the following organism dilutions of the test strains in 0.85% NaCl solution are spotted onto the agar medium:
(§3) The plates are incubated at 37° C. for 24 hours (A.niger 3 days at 28° C.) and then the highest dilution of the test substance at which growth is just no longer discernible (corresponds to MIC) is determined.

In assay [2] the test system is Escherichia coli NCTC 8196. The assay can be described thus: Agar incorporation test (MIC test). The following applies: E. coli. The method, then: as §1, §2, §3
Assay [3] relates to Pseudomonas aeruginosa CIP A-22. The assay can be described thus: Agar incorporation test (MIC test). The following applies: P. aeruginosa. On the procedure: as §1, §2, §3
Assay [4] has as its system Candida albicans ATCC 10231. The assay can be described thus: Agar incorporation test (MIC test). The following applies: C. albicans. The method, then:
as §1, §2, §3

The test system of assay [5] is Aspergillus niger ATCC 6275. Kind of assay: Agar incorporation test (MIC test). The following applies: A. niger. The method, then: as §1, §2, §3
Assay [6] has as its system Staphylococcus aureus ATCC 9144. Kind of assay: Agar incorporation test (MIC test). As to conditions: S. aureus. On the procedure: as §1, §2, §3
Assay [7] deals with Staphylococcus epidermidis ATCC 12228. Kind of assay: Agar incorporation test (MIC test). The following applies: S. epidermidis. The method, then: as §1, §2, §3
Assay [8] concerns Aspergillus niger ATCC 6275. The assay can be described thus: Agar diffusion test. Also: values in mm. The following applies: A. niger ATCC 6275. The method, then: (§4) Determination of antimicrobial activity in the agar diffusion test [table] After the bacteria precultures have been incubated, they are diluted 1:100 with dilution medium. 3.5 ml of that dilution of the bacteria are introduced into 500 ml of agar and from that organism-containing agar plates of about 15 ml of medium are poured. The test substances are dissolved in a suitable solvent in final concentrations of 1-3%. After the agar plates have cooled and solidified, wells are punched in the agar (diameter 10 mm) and 100 μl of test substance solution are introduced into each well. After incubation of the plates, the diameters of the growth-free inhibiting areolas in the agar are determined.
Background: In agar diffusion tests the substance spreads into inoculated agar from a disc or well.

Assay [9] concerns Escherichia coli NCTC 8196. Kind of assay: Agar diffusion test. Also: values in mm. As to conditions: E. coli NCTC 8196. On the procedure:
as §4, with “The test substances are dissolved in a suitable solvent in final concentrations of 1-3%.” left out

The subject of assay [10] is Candida albicans ATCC 10231. The assay can be described thus: Agar diffusion test. Also: values in mm. On the procedure: as §4, with “The test substances are dissolved in a suitable solvent in final concentrations of 1-3%.” left out
Assay [11] relates to Staphylococcus aureus ATCC 9144. The assay can be described thus: Agar diffusion test. Also: values in mm. The following applies: S. aureus ATCC 9144. On the procedure:
as §4, with “The test substances are dissolved in a suitable solvent in final concentrations of 1-3%.” left out

For assay [12], the system named is Pseudomonas aeruginosa ATCC 15 442. The assay can be described thus: Agar diffusion test. Also: values in mm. As to conditions: P. aeruginosa ATCC 15 442. On the procedure: as §4, with “The test substances are dissolved in a suitable solvent in final concentrations of 1-3%.” left out
[13] abbreviates: 1% in ethanol, C. albicans ATCC 10231.
The mark [14] stands for this setting: 2% in ethanol, C. albicans ATCC 10231.

`O=c1oc(-c2ccccc2)ns1` [compound 106]: the MIC in [1] (solution in DMSO) is 10 ppm; in assay [2] (solution in DMSO), 100 ppm; in [3] (solution in DMSO) it was 1000 ppm; in [4] (solution in DMSO), 100 ppm; in assay [5] (solution in DMSO) it was 250 ppm; in [6] (solution in DMSO) it was 10 ppm. Moreover, the MIC in [7] (solution in DMSO) was 10 ppm.
Turning to `Cc1nsc(=O)o1` [compound 108], the Inhibiting areola diameter in assay [8] (1% in ethanol) is on record as 4/5; in [8] (2% in ethanol) it was 12/12; in assay [9] (1% in ethanol), 1/1; in [9] (2% in ethanol) it was 3/2; in assay [10] (setting [13]), 8/8; in [10] (setting [14]) it was 10/10. For the same compound, the Inhibiting areola diameter in assay [11] (1% in ethanol) is on record as 12/12; in assay [11] (2% in ethanol), 20/20.
With `O=c1oc(-c2cccnc2)ns1` [compound 103], the MIC in [1] (solution in EtOH) came out at 200 ppm; in assay [2] (solution in EtOH), 600 ppm; in assay [3] (solution in EtOH), 600 ppm; in [4] (solution in EtOH), 100 ppm; in [5] (solution in EtOH), 600 ppm; in [6] (solution in EtOH) it was 100 ppm. In addition, the MIC in assay [7] (solution in EtOH) worked out at 100 ppm.
Turning to `O=c1oc(-c2ccccc2O)ns1` [compound 101], the MIC is on record as 250 ppm in [1] (solution in EtOH); 1000 ppm in assay [2] (solution in EtOH); 1000 ppm in [3] (solution in EtOH); 100 ppm in [4] (solution in EtOH); 100 ppm in [5] (solution in EtOH); 100 ppm in assay [6] (solution in EtOH). Also, the MIC in assay [7] (solution in EtOH) was determined as 100 ppm.
Consider `O=c1oc(-c2ccc([N+](=O)[O-])o2)ns1` [compound 105], for which the Inhibiting areola diameter in assay [9] (0.1% in THF) is recorded as 1/1; in assay [9] (0.5% in THF), 3/3; in assay [9] (1.0% in THF) it was 6/6; in assay [9] (3.0% in THF), 6/6; in [12] (0.1% in THF) it was 0/0; in assay [12] (0.5% in THF), 1/1. In addition, the Inhibiting areola diameter is reported as 5/5 in [12] (1.0% in THF); 6/6 in assay [12] (3.0% in THF); 3/3 in assay [10] (0.1% in THF, C. albicans ATCC 10 231); 4/4 in assay [10] (0.5% in THF, C. albicans ATCC 10 231); 8/8 in assay [10] (1.0% in THF, C. albicans ATCC 10 231); 9/9 in assay [10] (3.0% in THF, C. albicans ATCC 10 231). The Inhibiting areola diameter in [11] (0.1% in THF) is recorded as 4/4; in assay [11] (0.5% in THF), 10/10; in assay [11] (1.0% in THF), 11/11; in [11] (3.0% in THF), 11/11.
As to `O=c1oc(-c2ccc(Cl)cc2)ns1` [compound 107], the Inhibiting areola diameter in [8] (1% in ethanol) is reported as 0/0; in assay [8] (2% in ethanol), 0/0; in assay [9] (1% in ethanol), 1/1; in [9] (2% in ethanol), 1/1; in assay [10] (setting [13]), 3/3; in assay [10] (setting [14]), 4/4. For the same compound, the Inhibiting areola diameter in assay [11] (1% in ethanol) is listed as 4/4; in [11] (2% in ethanol) it was 5/5.
